Laboratory results published in paper PMC4104029, “Mechanism of Action of Compound-13: An α1-Selective Small Molecule Activator of AMPK” (Chemistry & Biology, 2014).

System: panel of 138 protein kinases
Assay: Kinase inhibition screen
Type: biochemical
Details: 10 μM
Method: Supplemental Figure Legends:
Figure S1, related to Figures 1-3. Subunit composition of AMPK preparations used in this study. (A) Heterotrimeric AMPK complexes (10 ng) produced in both Sf9 (Sigma and Signalchem) and E.coli (in our laboratory) were analysed by Western blotting using isoform specific antibodies. Note that both the α2/α1-HOOK and α2/α1-LOOP chimeras are no longer recognised by the anti-α2 antibody as the epitope has been replaced (see Fig S4). (B) Heterotrimeric AMPK α2/α1 chimeric complexes expressed in E.coli (2 μg) were separated by SDS-PAGE and stained with Coomassie G-250. Arrows indicate the position of the […]
Figure S2, related to Figure 1. C2 has negligible effects on a panel of 138 protein kinases.
Kinase inhibition screen was performed by the International Centre for Kinase profiling (Dundee). Assays were performed in duplicate using 10 µM C2 and are representative of two independent screens. Results are shown in rank order as mean % activity compared with controls in the absence of compound ± SD. […]
Figure S3, related to Figure 2. […] Results are expressed as mean Pi incorporated in nmol.min-1.mg-1 ± SD. […] Results are expressed as fold increase in activity relative to controls in the absence of compound ± SD.
(E) C2 and AMP displace a GST-AMPKγ2 subunit fusion from ATP-γ-Sepharose. […] The presence of eluted AMPKγ2 was analysed by SDS-PAGE and staining with colloidal Coomassie. […]

O=P(O)(O)c1ccc(-c2cc(O)on2)o1 [Compound C2, 5-(5-hydroxyl-isoxazol-3-yl)-furan-2-phosphonic acid]
effect on upstream kinases of AMPK (LKB1, CaMKKβ, and TAK1): did not affect
effect on kinase activity (includes AMPK-related kinase family): majority were not affected
